From US7192974B2, “Hydroxymethyl substituted dihydroisoxazole derivatives useful as antibiotic agents” (AstraZeneca AB, priority 2003, dated 2007)
Structures can show the parent of a compound that is named as a salt.

SMILES | melting point
CN(CCCCC(=O)OC[C@@H]1CC(c2ccc(-c3ccc(N4C[C@H](Cn5ccnn5)OC4=O)cc3F)cn2)=NO1)C(=O)OC(C)(C)C [Example 34, [(5S)-3-(5-{2-fluoro-4-[(5R)-2-oxo-5-(1H-1,2,3-triazol-1-ylmethyl)-1,3-oxazolidin-3-yl]phenyl}pyridin-2-yl)-4,5-dihydroisoxazol-5-yl]methyl 5-[(tert-butoxycarbonyl)(methyl)amino]pentanoate] | 121 °C
O=C(OC[C@@H]1CC(c2ccc(-c3ccc(N4C[C@H](Cn5ccnn5)OC4=O)cc3F)cn2)=NO1)c1ccc[n+]([O-])c1 [Example 25, [(5S)-3-(5-{2-fluoro-4-[(5R)-2-oxo-5-(1H-1,2,3-triazol-1-ylmethyl)-1,3-oxazolidin-3-yl]phenyl}pyridin-2-yl)-4,5-dihydroisoxazol-5-yl]methyl nicotinate 1-oxide] | 255 °C
CCOC(=O)CCCCC(=O)OC[C@@H]1CC(c2ccc(-c3ccc(N4C[C@H](Cn5ccnn5)OC4=O)cc3F)cn2)=NO1 [Example 6, Ethyl [(5S)-3-(5-{2-fluoro-4-[(5R)-2-oxo-5-(1H-1,2,3-triazol-1-ylmethyl)-1,3oxazolidin-3-yl]phenyl}pyridin-2-yl)-4,5-dihydroisoxazol-5-yl]methyl hexanedioate] | 88 °C
COC(=O)N(C)CCCC(=O)OC[C@@H]1CC(c2ccc(-c3ccc(N4C[C@H](Cn5ccnn5)OC4=O)cc3F)cn2)=NO1 [Example 35, [(5S)-3-(5-{2-fluoro-4-[(5R)-2-oxo-5-(1H-1,2,3-triazol-1-ylmethyl)-1,3-oxazolidin-3-yl]phenyl}pyridin-2-yl)-4,5-dihydroisoxazol-5-yl]methyl 4-[(methoxycarbonyl)(methyl)amino]butanoate] | 135 °C
CN(C)CC(=O)OCC1CC(c2ccc(-c3ccc(N4C[C@H](Cn5ccnn5)OC4=O)cc3F)cn2)=NO1 (stereo partly drawn) (as salt: hydrochloride) [Example 26, [3-(5-{2-fluoro-4-[(5R)-2-oxo-5-(1H-1,2,3-triazol-1-ylmethyl)-1,3-oxazolidin-3-yl]phenyl}pyridin-2-yl)-4,5-dihydroisoxazol-5-yl]methyl N,N-dimethylglycinate] | 175 to 180 °C
NCCC(=O)OC[C@@H]1CC(c2ccc(-c3ccc(N4C[C@H](Cn5ccnn5)OC4=O)cc3F)cn2)=NO1 (as salt: hydrochloride) [Example 8, [(5S)-3-(5-{2-Fluoro-4-[(5R)-2-oxo-5-(1H-1,2,3-triazol-1-ylmethyl)-1,3-oxazolidin-3-yl]phenyl}pyridin-2-yl)-4,5-dihydroisoxazol-5-yl]methyl β-alaninate] | 68 to 75 °C
COC(=O)N(C)CCCCCC(=O)OC[C@@H]1CC(c2ccc(-c3ccc(N4C[C@H](Cn5ccnn5)OC4=O)cc3F)cn2)=NO1 [Example 36, [(5S)-3-(5-{2-fluoro-4-[(5R)-2-oxo-5-(1H-1,2,3-triazol-1-ylmethyl)-1,3-oxazolidin-3-yl]phenyl}pyridin-2-yl)-4,5-dihydroisoxazol-5-yl]methyl 6-[(methoxycarbonyl)(methyl)amino]hexanoate] | 103 °C
CNCCCCC(=O)OC[C@@H]1CC(c2ccc(-c3ccc(N4C[C@H](Cn5ccnn5)OC4=O)cc3F)cn2)=NO1 (as salt: hydrochloride) [Example 37, [(5S)-3-(5-{2-fluoro-4-[(5R)-2-oxo-5-(1H-1,2,3-triazol-1-ylmethyl)-1,3-oxazolidin-3-yl]phenyl}pyridin-2-yl)-4,5-dihydroisoxazol-5-yl]methyl 5-(methylamino)pentanoate] | 184 °C
COC(=O)N(C)CCCCC(=O)OC[C@@H]1CC(c2ccc(-c3ccc(N4C[C@H](Cn5ccnn5)OC4=O)cc3F)cn2)=NO1 [Example 33, [(5S)-3-(5-{2-fluoro-4-[(5R)-2-oxo-5-(1H-1,2,3-triazol-1-ylmethyl)-1,3-oxazolidin-3-yl]phenyl}pyridin-2-yl)-4,5-dihydroisoxazol-5-yl]methyl 5-[(methoxycarbonyl)(methyl)amino]pentanoate] | 82 °C
CN(C)CC(=O)N(C)CCCCC(=O)OC[C@@H]1CC(c2ccc(-c3ccc(N4C[C@H](Cn5ccnn5)OC4=O)cc3F)cn2)=NO1 (as salt: hydrochloride) [Example 38, [(5S)-3-(5-{2-fluoro-4-[(5R)-2-oxo-5-(1H-1,2,3-triazol-1-ylmethyl)-1,3-oxazolidin-3-yl]phenyl}pyridin-2-yl)-4,5-dihydroisoxazol-5-yl]methyl 5-[(N,N-dimethylglycyl)(methyl)amino]pentanoate] | 133 °C
COCC(=O)OC[C@@H]1CC(c2ccc(-c3ccc(N4C[C@H](Cn5ccnn5)OC4=O)cc3F)cn2)=NO1 [Example 12, [(5S)-3-(5-{2-Fluoro-4-[(5R)-2-oxo-5-(1H-1,2,3-triazol-1-ylmethyl)-1,3-oxazolidin-3-yl]phenyl}pyridin-2-yl)-4,5-dihydroisoxazol-5-yl]methyl methoxyacetate] | 170 °C
CCN(CC)CCC(=O)OC[C@@H]1CC(c2ccc(-c3ccc(N4C[C@H](Cn5ccnn5)OC4=O)cc3F)cn2)=NO1 [Example 11, [(5S)-3-(5-{2-Fluoro-4-[(5R)-2-oxo-5-(1H-1,2,3-triazol-1-ylmethyl)-1,3-oxazolidin-3-yl]phenyl}pyridin-2-yl)-4,5-dihydroisoxazol-5-yl]methyl N,N-diethyl-β-alaninate] | 167 °C
C[N+](C)(C)CCOC(=O)OC[C@@H]1CC(c2ccc(-c3ccc(N4C[C@H](Cn5ccnn5)OC4=O)cc3F)cn2)=NO1 (as salt: chloride) [Example 32, 2-[({[(5S)-3-(5-{2-fluoro-4-[(5R)-2-oxo-5-(1H-1,2,3-triazol-1-ylmethyl)-1,3-oxazolidin-3-yl]phenyl}pyridin-2-yl)-4,5-dihydrolsoxazol-5-yl]methoxy}carbonyl)oxy]-N,N,N-trimethylethanaminium chloride] | 180 to 190 °C
COCCCC(=O)OC[C@@H]1CC(c2ccc(-c3ccc(N4C[C@H](Cn5ccnn5)OC4=O)cc3F)cn2)=NO1 [Example 17, [(5S)-3-(5-{2-Fluoro-4-[(5R)-2-oxo-5-(1H-1,2,3-triazol-1-ylmethyl)-1,3-oxazolidin-3-yl]phenyl}pyridin-2-yl)-4,5-dihydroisoxazol-5-yl]methyl 4-methoxybutanoate] | 154 °C
CCOC(=O)NCCCCC(=O)OCC1CC(c2ccc(-c3ccc(N4C[C@H](Cn5ccnn5)OC4=O)cc3F)cn2)=NO1 (stereo partly drawn) [Example 27, [(5S)-3-(5-{2-fluoro-4-[(5R)-2-oxo-5-(1H-1,23-triazol-1-ylmethyl)-1,3-oxazolidin-3-yl]phenyl}pyridin-2-yl)-4,5-dihydroisoxazol-5-yl]methyl 5-[(ethoxycarbonyl)amino]pentanoate] | 183 °C
CN(C)CCCC(=O)OC[C@@H]1CC(c2ccc(-c3ccc(N4C[C@H](Cn5ccnn5)OC4=O)cc3F)cn2)=NO1 [Example 9, [(5S)-3-(5-{2-Fluoro-4-[(5R)-2-oxo-5-(1H-1,2,3-triazol-1-ylmethyl)-1,3-oxazolidin-3-yl]phenyl}pyridin-2-yl)-4,5-dihydroisoxazol-5-yl]methyl 4-(dimethylamino)butanoate] | 148 °C
COCCCOC(=O)OC[C@@H]1CC(c2ccc(-c3ccc(N4C[C@H](Cn5ccnn5)OC4=O)cc3F)cn2)=NO1 [Example 29, (5S)-3-(5-{2-fluoro-4-[(5R)-2-oxo-5-(1H-1,2,3-triazol-1-ylmethyl)-1,3-oxazolidin-3-yl]phenyl}pyridin-2-yl)-4,5-dihydroisoxazol-5-yl]methyl 3-methoxypropyl carbonate] | 142 °C
O=C(OC[C@@H]1CC(c2ccc(-c3ccc(N4C[C@H](Cn5ccnn5)OC4=O)cc3F)cn2)=NO1)c1cncnc1 [Example 31] | 253 to 264 °C
COC(=O)OC[C@@H]1CC(c2ccc(-c3ccc(N4C[C@H](Cn5ccnn5)OC4=O)cc3F)cn2)=NO1 [Example 14, [(5S)-3-(5-{2-Fluoro-4-[(5R)-2-oxo-5-(1H-1,2,3-triazol-1-ylmethyl)-1,3-oxazolidin-3-yl]phenyl}pyridin-2-yl)-4,5-dihydroisoxazol-5-yl]methyl methyl carbonate] | 205 °C
O=C(OC[C@@H]1CC(c2ccc(-c3ccc(N4C[C@H](Cn5ccnn5)OC4=O)cc3F)cn2)=NO1)c1cnccn1 [Example 30, [(5S)-3-(5-{2-fluoro-4-[(5R)-2-oxo-5-(1H-1,2,3-triazol-1-ylmethyl)-1,3-oxazolidin-3-yl]phenyl}pyridin-2-yl)-4,5-dihydroisoxazol-5-yl]methylpyrazine-2-carboxylate] | 205 to 226 °C
COC(=O)NCCCCC(=O)OC[C@@H]1CC(c2ccc(-c3ccc(N4C[C@H](Cn5ccnn5)OC4=O)cc3F)cn2)=NO1 [Example 10, [(5S)-3-(5-{2-Fluoro-4-[(5R)-2-oxo-5-(1H-1,2,3-triazol-1-ylmethyl)-1,3-oxazolidin-3-yl]phenyl}pyridin-2-yl)-4,5-dihydroisoxazol-5-yl]methyl 5-[(methoxycarbonyl)amino]pentanoate] | 90 °C
COCCOC(=O)OC[C@@H]1CC(c2ccc(-c3ccc(N4C[C@H](Cn5ccnn5)OC4=O)cc3F)cn2)=NO1 [Example 15, [(5S)-3-(5-{2-Fluoro-4-[(5R)-2-oxo-5-(1H-1,2,3-triazol-1-ylmethyl)-1,3-oxazolidin-3-yl]phenyl}pyridin-2-yl)-4,5-dihydroisoxazol-5-yl]methyl 2-methoxyethyl carbonate] | 112 °C
COCCC(=O)OC[C@@H]1CC(c2ccc(-c3ccc(N4C[C@H](Cn5ccnn5)OC4=O)cc3F)cn2)=NO1 [Example 13, [(5S)-3-(5-{2-Fluoro-4-[(5R)-2-oxo-5-(1H-1,2,3-triazol-1-ylmethyl)-1,3-oxazolidin-3-yl]phenyl}pyridin-2-yl)-4,5-dihydroisoxazol-5-yl]methyl 3-methoxypropanoate] | 149 °C
